Experimental data: US20240239781A1, “1H-PYRAZOLE DERIVATIVES AS SIGMA LIGANDS” (ACONDICIONAMIENTO TARRASENSE, priority 2021, published 2024)

How the values were obtained:
human σ1 receptor = molecular target: T1, human σ1 receptor (Homo sapiens, UniProt Q99720); assay: Human σ1 receptor radioligand assay ([3H](+)-pentazocine, transfected HEK-293 membranes); settings: class scale, read-out: Binding σ-1 Ki
T1 construct: expressed in transfected cells; host or cells: HEK-293
Outline: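 Compounds were tested at a single 1 or 10 μM concentration (% inhibition) or at five concentrations to give Ki. They competed with 5 nM [3H](+)-pentazocine for transfected HEK-293 membranes (7 μg) in 50 mM Tris-HCl pH 8 at 37° C for 120 minutes. Nonspecific binding was set with 10 μM haloperidol, and a filtration scintillation read-out was used.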

human σ2/TMEM97 receptor = molecular target: T2, human σ2/TMEM97 receptor (Homo sapiens, UniProt Q5BJF2); assay: Binding assay to human σ2/TMEM97 receptor ([3H]-DTG, transfected HEK-293 membranes); settings: class scale, read-out: Binding σ-2 Ki
T2 construct: expressed in transfected cells; host or cells: HEK-293
T2 sequence (Q5BJF2 whole entry): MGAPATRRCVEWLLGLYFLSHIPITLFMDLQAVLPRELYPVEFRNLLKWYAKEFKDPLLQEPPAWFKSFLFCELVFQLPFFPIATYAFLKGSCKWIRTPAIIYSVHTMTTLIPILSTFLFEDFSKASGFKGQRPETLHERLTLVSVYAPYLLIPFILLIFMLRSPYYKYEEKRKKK
Outline: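 Competition against 10 nM [3H]-DTG (Tris-HCl 50 mM, pH 8.0, 25 °C, 120 min) using 15 μg transfected HEK-293 membrane protein, with 10 μM haloperidol defining NSB. Bound radioactivity counted after filtration; results as single-point % inhibition (1 or 10 μM) or five-point Ki.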

T1 sequence (Q99720 whole entry): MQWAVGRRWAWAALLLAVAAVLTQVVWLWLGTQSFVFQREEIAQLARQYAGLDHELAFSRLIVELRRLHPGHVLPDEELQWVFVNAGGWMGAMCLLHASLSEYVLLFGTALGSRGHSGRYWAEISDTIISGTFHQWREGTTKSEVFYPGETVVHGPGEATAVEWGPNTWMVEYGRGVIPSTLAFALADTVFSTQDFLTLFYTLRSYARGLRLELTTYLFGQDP

SMILES	Ki (human σ1 receptor) [nM]	Ki (human σ2/TMEM97 receptor) [nM]
Cc1cc(-c2nn(C)c(Cl)c2C(=O)N2CCC3(CCN(CCC(C)(C)C)CC3)CC2)no1 [Example 88, (5-Chloro-1-methyl-3-(5-methylisoxazol-3-yl)-1H-pyrazol-4-yl)(9-(3,3-dimethylbutyl)-3,9-diazaspiro[5.5]undecan-3-yl)methanone]	500 to 1000	< 100
Cc1cc(-c2nn(C)c(Cl)c2C(=O)N2CCC3(CCN(CC(C)C)CC3)CC2)no1 [Example 89, (5-Chloro-1-methyl-3-(5-methylisoxazol-3-yl)-1H-pyrazol-4-yl)(9-isobutyl-3,9-diazaspiro[5.5]undecan-3-yl)methanone]	> 1000	> 1000
Cc1cc(-c2nn(C)c(Cl)c2C(=O)N2CCC3(CCN(CCC(C)C)CC3)CC2)no1 [Example 90, (5-Chloro-1-methyl-3-(5-methylisoxazol-3-yl)-1H-pyrazol-4-yl)(9-isopentyl-3,9-diazaspiro[5.5]undecan-3-yl)methanone]	500 to 1000	100 to 500
Cc1cc(-c2nn(C)c(Cl)c2C(=O)N2CCC3(CCCN(CCC(C)(C)C)C3)CC2)no1 [Example 91, (5-Chloro-1-methyl-3-(5-methylisoxazol-3-yl)-1H-pyrazol-4-yl)(2-(3,3-dimethylbutyl)-2,9-diazaspiro[5.5]undecan-9-yl)methanone]	500 to 1000	< 100
Cc1cc(-c2nn(C)c(Cl)c2C(=O)N2CCCC3(CCN(CCC(C)(C)C)CC3)C2)no1 [Example 92, (5-Chloro-1-methyl-3-(5-methylisoxazol-3-yl)-1H-pyrazol-4-yl)(9-(3,3-dimethylbutyl)-2,9-diazaspiro[5.5]undecan-2-yl)methanone]	< 100	< 100
Cc1cc(-c2nn(C)c(Cl)c2C(=O)N2CCC3(CCC(NCCC(C)C)CC3)CC2)no1 [Example 93, (5-Chloro-1-methyl-3-(5-methylisoxazol-3-yl)-1H-pyrazol-4-yl)(9-(isopentylamino)-3-azaspiro[5.5]undecan-3-yl)methanone]	> 1000	100 to 500
Cc1cc(-c2nn(C)c(Cl)c2C(=O)N2CCC3(CCN(CCC(C)(C)C)CC3)C2)no1 [Example 94, (5-Chloro-1-methyl-3-(5-methylisoxazol-3-yl)-1H-pyrazol-4-yl)(8-(3,3-dimethylbutyl)-2,8-diazaspiro[4.5]decan-2-yl)methanone]	> 1000	100 to 500
Cc1cc(-c2nn(C)c(Cl)c2C(=O)N2CCCC(CNCC(C)C)C2)no1 (stereo not drawn) [Example 95, (5-Chloro-1-methyl-3-(5-methylisoxazol-3-yl)-1H-pyrazol-4-yl)(3-((isobutylamino)methyl)piperidin-1-yl)methanone]	> 1000	> 1000
Cc1cc(-c2nn(C)c(Cl)c2C(=O)N2CCC3(CCC(NCCC(C)(C)C)CC3)CC2)no1 [Example 96, (5-Chloro-1-methyl-3-(5-methylisoxazol-3-yl)-1H-pyrazol-4-yl)(9-((3,3-dimethylbutyl)amino)-3-azaspiro[5.5]undecan-3-yl)methanone]	> 1000	100 to 500
CCc1cc(-c2nn(C)c(Cl)c2C(=O)N2CCC3(CCN(CCC(C)(C)C)CC3)CC2)no1 [Example 97, (5-Chloro-3-(5-ethylisoxazol-3-yl)-1-methyl-1H-pyrazol-4-yl)(9-(3,3-dimethylbutyl)-3,9-diazaspiro[5.5]undecan-3-yl)methanone]	100 to 500	< 100
Cc1cc(-c2nn(C)c(F)c2C(=O)N2CCC3(CCN(CCC(C)(C)C)CC3)CC2)no1 [Example 98, (9-(3,3-Dimethylbutyl)-3,9-diazaspiro[5.5]undecan-3-yl)(5-fluoro-1-methyl-3-(5-methylisoxazol-3-yl)-1H-pyrazol-4-yl)methanone]	500 to 1000	< 100
CCn1nc(-c2cc(C)on2)c(C(=O)N2CCC3(CCN(CCC(C)(C)C)CC3)CC2)c1Cl [Example 99, (5-Chloro-1-ethyl-3-(5-methylisoxazol-3-yl)-1H-pyrazol-4-yl)(9-(3,3-dimethylbutyl)-3,9-diazaspiro[5.5]undecan-3-yl)methanone]	500 to 1000	< 100
